Source: ChEMBL document CHEMBL1123274, “Azasteroids: structure-activity relationships for inhibition of 5 alpha-reductase and of androgen receptor binding” (J Med Chem, 1986)

Biological target: T1, Androgen receptor (Rattus norvegicus, UniProt P15207)
T1 sequence (P15207 whole entry): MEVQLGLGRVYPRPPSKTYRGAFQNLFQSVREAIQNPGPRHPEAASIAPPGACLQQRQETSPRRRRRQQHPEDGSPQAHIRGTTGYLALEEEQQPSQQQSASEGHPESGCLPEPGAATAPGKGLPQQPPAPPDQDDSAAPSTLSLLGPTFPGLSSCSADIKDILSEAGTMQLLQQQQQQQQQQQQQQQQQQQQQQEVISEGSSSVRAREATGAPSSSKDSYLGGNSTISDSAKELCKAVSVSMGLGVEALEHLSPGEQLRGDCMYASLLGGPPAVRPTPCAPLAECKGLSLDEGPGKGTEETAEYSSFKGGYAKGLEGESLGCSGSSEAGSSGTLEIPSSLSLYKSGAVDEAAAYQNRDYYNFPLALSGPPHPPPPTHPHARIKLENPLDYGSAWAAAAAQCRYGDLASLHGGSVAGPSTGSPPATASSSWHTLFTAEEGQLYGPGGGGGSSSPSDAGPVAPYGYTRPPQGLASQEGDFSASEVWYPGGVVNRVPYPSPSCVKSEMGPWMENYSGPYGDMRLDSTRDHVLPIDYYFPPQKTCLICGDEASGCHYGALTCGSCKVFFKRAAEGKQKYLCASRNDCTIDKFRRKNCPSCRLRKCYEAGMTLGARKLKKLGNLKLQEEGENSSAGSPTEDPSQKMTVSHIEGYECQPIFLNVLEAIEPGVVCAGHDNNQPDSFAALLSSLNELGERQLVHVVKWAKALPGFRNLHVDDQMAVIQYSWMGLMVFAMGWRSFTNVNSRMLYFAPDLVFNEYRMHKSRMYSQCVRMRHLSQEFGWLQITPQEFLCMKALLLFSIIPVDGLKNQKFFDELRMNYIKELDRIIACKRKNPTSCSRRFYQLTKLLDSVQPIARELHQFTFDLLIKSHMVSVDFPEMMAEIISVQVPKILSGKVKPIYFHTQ
Test: In vitro antagonist activity against rat prostatic androgen receptor (AR)

| SMILES | IC50 [nM] |
| --- | --- |
| CC(=O)[C@H]1CC[C@H]2[C@@H]3CCC4=CC(=O)CC[C@]4(C)[C@H]3[C@H](O)C[C@]12C | 330 |
| CCN(CC)C(=O)[C@H]1CC[C@H]2[C@@H]3CC[C@H]4N(C)C(=O)[C@@H]5O[C@@H]5[C@]4(C)[C@H]3CC[C@]12C | 710 |
| CCN(CC)C(=O)[C@H]1CC[C@H]2[C@@H]3CC[C@H]4N(C)C(=O)[C@@H](OC)C[C@]4(C)[C@H]3CC[C@]12C | > 10000 |
| CCN(CC)C(=O)[C@H]1CC[C@H]2[C@@H]3CC[C@H]4N(C)C(=O)[C@H](OC)C[C@]4(C)[C@H]3CC[C@]12C | > 10000 |
| C[C@]12CC[C@H]3[C@@H](CCC4NC(=O)CC[C@@]43C)[C@@H]1CC[C@@H]2C(N)=O (stereo partly drawn) | > 100000 |
| CN1C(=O)CC[C@@]2(C)C1CC[C@H]1[C@@H]3CC[C@H](C(=O)C=[N+]=[N-])[C@@]3(C)CC[C@@H]12 (stereo partly drawn) | 580 |
| CN1C(=O)CC[C@@]2(C)C1=CC[C@H]1[C@@H]3CC[C@H](O)[C@@]3(C)CC[C@@H]12 | 7.4 |
| C[C@]12CC[C@H]3[C@@H](CCC4NC(=O)C=C[C@@]43C)[C@@H]1CC[C@@H]2C(=O)Sc1ccccn1 (stereo partly drawn) | > 10000 |
| CN1C(=O)CC[C@H]2C1CC[C@@H]1[C@@H]2CC[C@@]2(C)[C@H]1CC[C@@]21CCCO1 (stereo partly drawn) | 2000 |
| CCN(CC)C(=O)[C@H]1CCC[C@H]2[C@@H]3CC[C@H]4N(C)C(=O)CC[C@]4(C)[C@H]3CC[C@]12C | 7100 |
| CCN(CC)C(=O)[C@H]1CC[C@H]2[C@@H]3CC[C@H]4NC(=O)CCC[C@]4(C)[C@H]3CC[C@]12C | > 10000 |
| CCCCCNC(=O)[C@H]1CC[C@H]2[C@@H]3CCC4N(C)C(=O)CC[C@]4(C)[C@H]3CC[C@]12C (stereo partly drawn) | 250 |
| CCCCCCCCNC(=O)[C@H]1CC[C@H]2[C@@H]3CCC4N(C)C(=O)C=C[C@]4(C)[C@H]3CC[C@]12C (stereo partly drawn) | 340 |
| COC(=O)[C@H]1CC[C@H]2[C@@H]3CC[C@H]4N(C)C(=O)C=C[C@]4(C)[C@H]3CC[C@]12C | 13 |
| C[C@]12CC[C@H]3[C@@H](CCC4NC(=O)CC[C@@]43C)[C@@H]1CC[C@@H]2C(=O)c1ccc[nH]1 (stereo partly drawn) | 15000 |
| CN1C(=O)CC[C@@]2(C)C1CC[C@H]1[C@@H]3CC[C@H](C(=O)c4ccc[nH]4)[C@@]3(C)CC[C@@H]12 (stereo partly drawn) | 89 |
| C[C@]12CC[C@H]3[C@@H](CCC4NC(=O)C=C[C@@]43C)[C@@H]1CC[C@@H]2C(=O)c1ccc[nH]1 (stereo partly drawn) | 8000 |
| CC(C(=O)O)[C@H]1CC[C@H]2[C@@H]3CCC4N(C)C(=O)C=C[C@]4(C)[C@H]3CC[C@]12C (stereo partly drawn) | > 100000 |
| CC(C)CC(=O)[C@H]1CC[C@H]2[C@@H]3CCC4NC(=O)C=C[C@]4(C)[C@H]3CC[C@]12C (stereo partly drawn) | > 100000 |
| CC(C(=O)O)[C@H]1CC[C@H]2[C@@H]3CCC4NC(=O)C=C[C@]4(C)[C@H]3CC[C@]12C (stereo partly drawn) | > 100000 |
| CC(C)(C)CC(C)(C)NC(=O)[C@H]1CC[C@H]2[C@@H]3CCC4NC(=O)C=C[C@]4(C)[C@H]3CC[C@]12C (stereo partly drawn) | > 100000 |
| CN1C(=O)C=C[C@]2(C)[C@H]3CC[C@]4(C)[C@@H](C(N)=O)CC[C@H]4[C@@H]3CC[C@@H]12 | 150 |
| CN1C(=O)C=C[C@]2(C)[C@H]3CC[C@]4(C)[C@@H](O)CC[C@H]4[C@@H]3CC[C@@H]12 | 2.4 |
| CCNC(=O)[C@H]1CC[C@H]2[C@@H]3CC[C@H]4NC(=O)C=C[C@]4(C)[C@H]3CC[C@]12C | > 10000 |
| CC(C)N(C(=O)[C@H]1CC[C@H]2[C@@H]3CC=C4N(C)C(=O)C=C[C@]4(C)[C@H]3CC[C@]12C)C(C)C | 6400 |
| C[C@]12C=CC(=O)N[C@@H]1CC[C@@H]1[C@@H]2CC[C@]2(C)[C@@H](C(N)=O)CC[C@@H]12 | > 10000 |
| COC(=O)[C@H]1CC[C@H]2[C@@H]3CC[C@H]4NC(=O)C=C[C@]4(C)[C@H]3CC[C@]12C | 3200 |
| C[C@]12C=CC(=O)N[C@@H]1CC[C@@H]1[C@@H]2CC[C@]2(C)[C@@H](O)CC[C@@H]12 | 170 |
